How the values were obtained:
MDA-MB-231 cell line = test: Antiproliferative activity, MDA-MB-231 cell line (GI50); format: cell-based; details: Homo sapiens
CCNK = CCNK degradation (DC50, Dmax); format: cell-based; details: for Dmax (%): CCNK degradation
CDK12 = CDK12 (Homo sapiens, UniProt Q9NYV4); test: Inhibition of cyclin-dependent kinase 12 (% enzyme activity at 1 uM and IC50); format: biochemical; details: for remaining activity at 1 µM: 1 uM compound
CDK12, sequence (Q9NYV4 whole entry): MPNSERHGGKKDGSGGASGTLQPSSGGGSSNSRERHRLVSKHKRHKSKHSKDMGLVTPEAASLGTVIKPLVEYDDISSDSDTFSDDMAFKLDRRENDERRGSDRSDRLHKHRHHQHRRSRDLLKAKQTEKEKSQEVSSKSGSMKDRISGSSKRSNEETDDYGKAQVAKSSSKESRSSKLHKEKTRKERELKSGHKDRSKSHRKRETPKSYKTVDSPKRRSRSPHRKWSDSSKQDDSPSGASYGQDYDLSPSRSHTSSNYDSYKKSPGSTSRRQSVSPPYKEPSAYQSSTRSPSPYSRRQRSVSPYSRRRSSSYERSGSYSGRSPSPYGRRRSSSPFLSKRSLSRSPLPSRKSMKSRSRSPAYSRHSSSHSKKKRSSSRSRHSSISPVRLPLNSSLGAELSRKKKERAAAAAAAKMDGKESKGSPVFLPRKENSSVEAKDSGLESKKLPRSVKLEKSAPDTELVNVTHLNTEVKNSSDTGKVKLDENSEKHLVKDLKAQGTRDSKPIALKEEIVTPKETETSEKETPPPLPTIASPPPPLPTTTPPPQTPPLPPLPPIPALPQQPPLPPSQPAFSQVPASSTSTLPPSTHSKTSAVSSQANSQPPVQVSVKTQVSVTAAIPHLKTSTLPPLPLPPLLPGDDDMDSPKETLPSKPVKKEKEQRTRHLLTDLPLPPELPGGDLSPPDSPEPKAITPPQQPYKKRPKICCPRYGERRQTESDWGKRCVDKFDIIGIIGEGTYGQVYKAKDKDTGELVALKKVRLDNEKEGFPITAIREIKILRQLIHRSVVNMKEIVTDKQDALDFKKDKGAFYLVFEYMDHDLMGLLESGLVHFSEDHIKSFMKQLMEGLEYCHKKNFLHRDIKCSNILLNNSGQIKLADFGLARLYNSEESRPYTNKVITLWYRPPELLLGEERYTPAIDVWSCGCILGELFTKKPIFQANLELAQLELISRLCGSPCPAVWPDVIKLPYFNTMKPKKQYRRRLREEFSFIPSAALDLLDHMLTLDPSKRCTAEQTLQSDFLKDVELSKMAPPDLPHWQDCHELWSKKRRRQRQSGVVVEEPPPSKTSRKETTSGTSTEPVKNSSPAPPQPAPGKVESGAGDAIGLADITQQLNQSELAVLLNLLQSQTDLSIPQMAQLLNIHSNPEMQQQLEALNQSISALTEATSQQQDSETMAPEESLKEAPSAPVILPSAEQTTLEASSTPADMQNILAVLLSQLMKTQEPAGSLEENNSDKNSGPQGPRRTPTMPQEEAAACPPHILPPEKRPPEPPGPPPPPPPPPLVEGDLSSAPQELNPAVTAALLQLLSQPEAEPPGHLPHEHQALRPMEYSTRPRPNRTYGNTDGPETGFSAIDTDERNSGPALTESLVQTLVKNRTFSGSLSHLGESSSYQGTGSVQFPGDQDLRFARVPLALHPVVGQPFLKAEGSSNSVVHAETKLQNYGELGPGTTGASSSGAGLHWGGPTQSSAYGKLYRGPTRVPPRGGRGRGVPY
CDK12, sequence (O75909 whole entry partner): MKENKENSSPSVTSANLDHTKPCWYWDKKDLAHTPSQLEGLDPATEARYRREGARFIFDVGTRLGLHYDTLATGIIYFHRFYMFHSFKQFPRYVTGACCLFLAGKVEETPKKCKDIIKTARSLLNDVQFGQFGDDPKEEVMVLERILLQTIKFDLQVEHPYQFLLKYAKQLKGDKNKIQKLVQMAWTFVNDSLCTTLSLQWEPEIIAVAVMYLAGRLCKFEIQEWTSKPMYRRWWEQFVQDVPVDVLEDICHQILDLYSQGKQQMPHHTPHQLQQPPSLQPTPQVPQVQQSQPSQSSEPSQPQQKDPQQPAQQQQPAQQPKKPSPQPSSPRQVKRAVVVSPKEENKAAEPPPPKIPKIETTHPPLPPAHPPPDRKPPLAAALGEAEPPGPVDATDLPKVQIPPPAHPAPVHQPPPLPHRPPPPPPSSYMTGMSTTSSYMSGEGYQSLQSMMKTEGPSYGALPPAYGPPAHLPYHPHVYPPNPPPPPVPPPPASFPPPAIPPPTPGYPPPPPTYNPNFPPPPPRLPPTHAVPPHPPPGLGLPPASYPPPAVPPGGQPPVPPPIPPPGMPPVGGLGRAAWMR

Row | GI50 (MDA-MB-231 cell line) [nM] | DC50 (CCNK) [nM] | IC50 (CDK12) [nM] | remaining activity at 1 µM (CDK12) [%] | Compound | Dmax (%) (CCNK)
1 | 3910 | 1200 | – | 73 | Cc1cc(-c2cnc3c(NCc4nc5cccc(Cl)c5[nH]4)cc(N4CCOCC4)nn23)cs1 [Cmpd 85, N-((7-chloro-1H-benzo[d]imidazol-2-yl)methyl)-3-(5-methylthiophen-3-yl)-6-morpholinoimidazo[1,2-b]pyridazin-8-amine] | 85
2 | 3940 | 10000 | – | 103 | Cc1cc(-c2cnc3c(NCc4nc5c(C)ccnc5[nH]4)cc(N4CCOCC4)nn23)cs1 [Cmpd 91, N-((7-methyl-3H-imidazo[4,5-b]pyridin-2-yl)methyl)-3-(5-methylthiophen-3-yl)-6-morpholinoimidazo[1,2-b]pyridazin-8-amine] | –
3 | 1250 | 80 | 1220 | 36 | Cc1cc(-c2cnc3c(NCc4nc5c(F)cccc5[nH]4)cc(N4CCN(C)CC4)nn23)cs1 [Cmpd 93, N-((4-fluoro-1H-benzo[d]imidazol-2-yl)methyl)-6-(4-methylpiperazin-1-yl)-3-(5-methylthiophen-3-yl) imidazo[1,2-b]pyridazin-8-amine] | 80
4 | 1500 | 1000 | – | 70 | Cc1cc(-c2cnc3c(NCc4nc5c(F)cccc5[nH]4)cc(N4CCOCC4)nn23)cs1 [Cmpd 94, N-((4-fluoro-1H-benzo[d]imidazol-2-yl)methyl)-3-(5-methylthiophen-3-yl)-6-morpholinoimidazo[1,2-b]pyridazin-8-amine] | 80
5 | 10000 | 1300 | – | 79 | Cc1cc(-c2cnc3c(NCc4nc5c(F)c(F)ccc5[nH]4)cc(N4CCOCC4)nn23)cs1 [Cmpd 97, N-((4,5-difluoro-1H-benzo[d]imidazol-2-yl)methyl)-3-(5-methylthiophen-3-yl)-6-morpholinoimidazo[1,2-b]pyridazin-8-amine] | 75

More lines, now with the values behind:

Row | Compound | GI50 (MDA-MB-231 cell line) [nM] | DC50 (CCNK) [nM] | IC50 (CDK12) [nM] | remaining activity at 1 µM (CDK12) [%] | Dmax (%) (CCNK)
6 | CN1CCN(c2cc(NCc3nc4c(F)c(F)ccc4[nH]3)c3ncc(-c4csc(C#N)c4)n3n2)CC1 [Cmpd 82, 4-(8-(((4,5-difluoro-1H-benzo[d]imidazol-2-yl)methyl)amino)-6-(4-methylpiperazin-1-yl)imidazo[1,2-b]pyridazin-3-yl)thiophene-2-carbonitrile] | 1120 | 250 | 405 | 30 | 50
7 | Cc1cc(-c2cnc3c(NCc4nc5cccc(Cl)c5[nH]4)cc(N4CCN(C)CC4)nn23)cs1 [Cmpd 84, N-((7-chloro-1H-benzo[d]imidazol-2-yl)methyl)-6-(4-methylpipcrazin-1-yl)-3-(5-methylthiophen-3-yl) imidazo[1,2-b]pyridazin-8-amine] | 2210 | 1500 | – | 61 | 80
8 | Cc1cc(-c2cnc3c(NCc4nc5cc(Cl)c(Cl)cc5[nH]4)cc(N4CCN(C)CC4)nn23)cs1 [Cmpd 87, N-((5,6-dichloro-1H-benzo[d]imidazol-2-yl)methyl)-6-(4-methylpiperazin-1-yl)-3-(5-methylthiophen-3-yl) imidazo[1,2-b]pyridazin-8-amine] | 7360 | 10000 | – | 82 | –
9 | Cc1cc(-c2cnc3c(NCc4nc5cc(Cl)c(Cl)cc5[nH]4)cc(N4CCOCC4)nn23)cs1 [Cmpd 88, N-((5,6-dichloro-1H-benzo[d]imidazol-2-yl)methyl)-3-(5-methylthiophen-3-yl)-6-morpholinoimidazo[1,2-b]pyridazin-8-amine] | 460 | 1800 | – | 82 | 100
10 | Cc1cc(-c2cnc3c(NCc4nc5c(C)ccnc5[nH]4)cc(N4CCN(C)CC4)nn23)cs1 [Cmpd 90, N-((7-methyl-3H-imidazo[4,5-b]pyridin-2-yl)methyl)-6-(4-methylpiperazin-1-yl)-3-(5-methylthiophen-3-yl) imidazo[1,2-b]pyridazin-8-amine] | 4160 | 10000 | 1410 | 36 | –
11 | Cc1cc(-c2cnc3c(NCc4nc5c(F)c(F)ccc5[nH]4)cc(N4CCN(C)CC4)nn23)cs1 [Cmpd 96, N-((4,5-difluoro-1H-benzo[d]imidazol-2-yl)methyl)-6-(4-methylpiperazin-1-yl)-3-(5-methylthiophen-3-yl) imidazo[1,2-b]pyridazin-8-amine] | 3110 | 1800 | – | 63 | 75
12 | Cc1noc(C)c1-c1cnc2c(NCc3nc4cc(Cl)c(Cl)cc4[nH]3)cc(N3CCN(C)CC3)nn12 [Cmpd 99, N-((5,6-dichloro-1H-benzo[d]imidazol-2-yl)methyl)-3-(3,5-dimethylisoxazol-4-yl)-6-(4-methylpiperazin-1-yl) imidazo[1,2-b]pyridazin-8-amine] | 689 | 10000 | 1250 | 59 | –
13 | Cc1noc(C)c1-c1cnc2c(NCc3nc4cc(Cl)c(Cl)cc4[nH]3)cc(N3CCOCC3)nn12 [Cmpd 100, N-((5,6-dichloro-1H-benzo[d]imidazol-2-yl)methyl)-3-(3,5-dimethylisoxazol-4-yl)-6-morpholinoimidazo[1,2-b]pyridazin-8-amine] | 2030 | 10000 | 3000 | 73 | –

— patent US20260055114A1, “IMIDAZO[1,2-B]PYRIDAZINE INHIBITORS OF CYCLIN-DEPENDENT KINASES” (H. LEE MOFFITT CANCER CENTER AND RESEARCH INSTITUTE, INC., priority 2022, published 2026)
